The values that follow come from ChEMBL document CHEMBL5441456, “ASAP - SARS-CoV-2 nsp3 macrodomain dose response” (2024).

Several values for one entry are separate records, joined by “and”; a condition that tells them apart may be missing. Equal values may be shown once.

This assay addresses Replicase polyprotein 1ab (Severe acute respiratory syndrome coronavirus 2, UniProt P0DTD1). Put plainly: Functional biochemical assay to identify treatments for viral infectious disease that targets SARS-COV-2 nsp3 macrodomain, whereby the mechanism of action displaces an ADP-Ribose modified peptide from the binding site. Utilizing a time-resolved fluorescence method to measure binding by reading the emitted fluorescence intensity in two wavelengths.
Regarding `CC(C)[C@@H](Nc1ncnc2[nH]c(C(=O)N[C@H]3CCN(C)C3)cc12)c1ccc2c(c1)S(=O)(=O)CCC2`, the IC50 – broadly, the concentration that inhibits the measured activity by half – is 54 nM and 107 nM.
For the compound `CNC(=O)c1cccc(-c2cc3c(N[C@@H](c4ccc5c(c4)S(=O)(=O)CCC5)C(C)C)ncnc3[nH]2)c1`, the IC50 stood at 6740 nM.
Under `CC(C)[C@H](Nc1ncnc2[nH]c(-c3cnn(C)c3C#N)cc12)c1ccc2c(c1)NC(=O)CO2` stands 176 nM; under `CNC(=O)c1cccc(-c2cc3c(N[C@H](c4ccc5c(c4)S(=O)(=O)CCC5)C(C)C)ncnc3[nH]2)c1`, 14 nM and 26 nM and 10 nM and 20 nM and 22 nM and 27 nM and 29 nM; under `C[C@@H](C(=O)O)[C@H](NC(=O)c1ncnc2[nH]ccc12)c1ccc(Br)cc1`, 2850 nM and 982 nM and 1030 nM.
For `CCNC(=O)c1cc2c(N[C@H](c3ccc4c(c3)OCCO4)C(C)C)ncnc2[nH]1` the value was 46800 nM; for `CC(C)[C@@H](Nc1ncnc2[nH]c(-c3cccc(-n4cnnn4)c3)cc12)c1ccc2c(c1)S(=O)(=O)CCC2`, 241 nM.
Under `CC(C)[C@H](Nc1ncncc1-n1nccn1)c1ccc2c(c1)S(=O)(=O)CCC2` stands above 99500 nM.
For `CC(C)[C@@H](Nc1ncnc2[nH]c(-c3ccc(S(=O)(=O)NCCO)cc3)cc12)c1ccc2c(c1)S(=O)(=O)CCC2`, the IC50 was 100 nM and 90 nM and 156 nM.
In the case of `CC(=O)Nc1ccc(-c2cc3c(N[C@@H](c4ccc5c(c4)S(=O)(=O)CCC5)C(C)C)ncnc3[nH]2)cc1F`, the IC50 is 203 nM and 120 nM and 206 nM.
For `CC(C)[C@H](Nc1nc(N)ncc1Cl)c1ccc2c(c1)S(=O)(=O)CCC2` the value was above 99500 nM; for `CC(C)[C@@H](Nc1ncnc2[nH]c(-c3ccc4c(c3)C(C)(C)C(=O)N4)cc12)c1ccc2c(c1)S(=O)(=O)CCC2`, 334 nM; for `CCNC(=O)c1cc2c(N[C@H](c3ccnc(N)c3)C(C)C)ncnc2[nH]1`, 1790 nM.
For `CC(C)[C@@H](Nc1cc(N2CCOCC2)ncn1)c1ccc2c(c1)S(=O)(=O)CCC2`, the half-maximal inhibitory concentration (IC50) was above 99500 nM.
`CC(C)[C@@H](Nc1ncnc2c1OCCO2)c1ccc2c(c1)S(=O)(=O)CCC2` gave an IC50 above 99500 nM.
Under `CC(C)[C@@H](Nc1cc(N)ncn1)c1ccc2c(c1)S(=O)(=O)CCC2` stands 43800 nM.
`CC(C)[C@@H](Nc1ncnc(N2CCCC2)n1)c1ccc2c(c1)S(=O)(=O)CCC2` had an IC50 above 99500 nM.
For `CC(C)[C@@H](Nc1ncnc2[nH]c(-c3ccc(S(N)(=O)=O)c4nsnc34)cc12)c1ccc2c(c1)S(=O)(=O)CCC2` the value was 242 nM; for `CC(C)[C@@H](Nc1ncnc2[nH]c(-c3cccc4c3NC(=O)C4)cc12)c1ccc2c(c1)S(=O)(=O)CCC2`, 360 nM; for `CC(C)[C@@H](NC(=O)Cc1ncnc2[nH]ccc12)c1ccc2c(c1)S(=O)(=O)CCC2`, above 99500 nM.
For `CCNC(=O)c1cc2c(N[C@H](c3ccc4nc(NC(C)=O)sc4c3)C(C)C)ncnc2[nH]1` the value was 30100 nM; for `CC(C)[C@H](Nc1ncnc2n[nH]cc12)c1ccc2c(c1)S(=O)(=O)CCC2`, 1560 nM and 770 nM; for `CC(C)[C@@H](Nc1ncnc2[nH]c(-c3cnc(N)nc3)cc12)c1ccc2c(c1)S(=O)(=O)CCC2`, 85 nM and 62 nM and 106 nM.
For `CC(C)[C@@H](Nc1ncnc2[nH]c(-c3cncnc3)cc12)c1ccc2c(c1)S(=O)(=O)CCC2` the value was 478 nM and 308 nM and 538 nM; for `CCNC(=O)c1cc2c(N[C@H](c3ccccc3N(C)S(C)(=O)=O)C(C)C)ncnc2[nH]1`, above 99500 nM; for `CNC(=O)c1cc2c(N[C@H](c3ccc4c(c3)S(=O)(=O)CCC4)C(C)C)ncnc2[nH]1`, 1790 nM.
`CC(C)[C@H](Nc1ncnc(N2CCCC2)n1)c1ccc2c(c1)S(=O)(=O)CCC2`: the IC50 is above 99500 nM.
For `CC(C)[C@@H](Nc1ncnc2[nH]c(-c3cnc(N4CC(O)C4)nc3)cc12)c1ccc2c(c1)S(=O)(=O)CCC2` the value was 94 nM and 68 nM and 116 nM; for `CC(C)[C@H](Nc1ncnc(O)c1Cl)c1ccc2c(c1)S(=O)(=O)CCC2`, above 99500 nM; for `CNS(=O)(=O)c1cc2c(N[C@@H](c3ccc4c(c3)S(=O)(=O)CCC4)C(C)C)ncnc2[nH]1`, 1170 nM.
On to `CC(C)[C@@H](Nc1ncnc2[nH]ccc12)c1ccc2c(n1)S(=O)(=O)CCC2`, for which the IC50 was 1110 nM and 784 nM.
In turn, `CC(C)[C@H](Oc1cc(N)ncn1)c1ccc2c(c1)S(=O)(=O)CCC2` came in with an IC50 of 59800 nM.
For `CCNC(=O)c1cc2c(N[C@H](c3cnc(C(=O)N(C)C)nc3)C(C)C)ncnc2[nH]1` the value was 47500 nM; for `CC(C)[C@@H](Nc1ncnc2[nH]c(C3=CCOC3)cc12)c1ccc2c(c1)S(=O)(=O)CCC2`, 82 nM and 114 nM and 244 nM.
With `CC(C)[C@H](Nc1ncnc2[nH]c(-c3cnn(CC(=O)N(C)C)c3)cc12)c1ccc2c(c1)OCCO2`, the IC50 is 235 nM and 395 nM.
Under `CC(C)[C@H](Nc1ncnc(-n2cccn2)n1)c1ccc2c(c1)S(=O)(=O)CCC2` stands above 99500 nM.
Under `CC(=O)N1CCN(Cc2cccc(-c3cc4c(N[C@@H](c5ccc6c(c5)S(=O)(=O)CCC6)C(C)C)ncnc4[nH]3)c2)CC1` stands 258 nM and 186 nM and 325 nM; under `CC(C)[C@@H](Nc1ncnc2[nH]c(-c3cnc4n3CCC4)cc12)c1ccc2c(c1)S(=O)(=O)CCC2`, 51 nM and 43 nM and 65 nM and 46 nM and 52 nM.
For `CC(C)[C@@H](Nc1ncnc2[nH]c(-c3ccc(S(C)(=O)=O)nc3)cc12)c1ccc2c(c1)S(=O)(=O)CCC2` the value was 49 nM and 54 nM and 94 nM and 60 nM and 69 nM; for `CC(C)[C@@H](Nc1ncnc2[nH]c(C(=O)NC3CCN(C)CC3)cc12)c1ccc2c(c1)S(=O)(=O)CCC2`, 208 nM.
`CC(C)[C@H](Nc1ncnc2c1CNCC2)c1ccc2c(c1)S(=O)(=O)CCC2` had an IC50 above 99500 nM.
For `CC(C)[C@@H](Nc1ncnc2[nH]c(-c3cc4c(cc3F)NC(=O)CC4)cc12)c1ccc2c(c1)S(=O)(=O)CCC2` the value was 297 nM and 189 nM and 345 nM.
For `CC(C)[C@H](Nc1ncnc2c1OCCO2)c1ccc2c(c1)S(=O)(=O)CCC2` the value was 38400 nM; for `Cc1n[nH]c(C)c1-c1cc2c(N[C@@H](c3ccc4c(c3)S(=O)(=O)CCC4)C(C)C)ncnc2[nH]1`, 456 nM and 272 nM and 503 nM.
Under `CC(C)[C@H](Nc1cc(N2CCNCC2)ncn1)c1ccc2c(c1)S(=O)(=O)CCC2` stands above 99500 nM; under `CC(C)[C@@H](Nc1ncnc2[nH]c(-c3ccc(=O)n(C)c3)cc12)c1ccc2c(c1)S(=O)(=O)CCC2`, 50 nM and 46 nM and 40 nM and 48 nM and 78 nM; under `CC(C)[C@H](Nc1ncnc(N)c1Cl)c1ccc2c(c1)S(=O)(=O)CCC2`, 2940 nM and 1560 nM.
Compound `CC(C)[C@@H](Nc1ncnc2c1CCO2)c1ccc2c(c1)S(=O)(=O)CCC2` returned an IC50 of 62900 nM.
Under `CC(C)[C@@H](Nc1ncnc2[nH]c(-c3ccn(C)c(=O)c3)cc12)c1ccc2c(c1)S(=O)(=O)CCC2` stands 74 nM and 63 nM and 112 nM; under `CCNC(=O)c1cc2c(N[C@H](c3ccc4c(c3)NS(=O)(=O)CO4)C(C)C)ncnc2[nH]1`, 29 nM and 38 nM and 37 nM.
For `CC(=O)N1[C@@H]2CC[C@H]1c1c(ncnc1N[C@@H](c1ccc3c(c1)S(=O)(=O)CCC3)C(C)C)C2` the value was above 99500 nM.
Under `CC(C)[C@@H](Nc1ncnc2[nH]c(-c3cc(O)nc4ccccc34)cc12)c1ccc2c(c1)S(=O)(=O)CCC2` stands 1670 nM.
The compound `Cc1nc(N)c(Cl)c(N[C@H](c2ccc3c(c2)S(=O)(=O)CCC3)C(C)C)n1` came in with a concentration for half-maximal inhibition (IC50) above 99500 nM.
Under `CC(C)[C@@H](Nc1ncncc1Cl)c1ccc2c(c1)S(=O)(=O)CCC2` stands above 99500 nM; under `CCNC(=O)c1cc2c(NC3(c4ccc5c(c4)S(=O)(=O)CCC5)CCC3)ncnc2[nH]1`, 3050 nM; under `CC(C)[C@H](Nc1ncnc2[nH]c(-c3cnn(CC(=O)N(C)C)c3)cc12)c1ccc2c(c1)S(=O)(=O)CCC2`, 5560 nM and 4260 nM.
As to `CC(C)[C@H](Nc1ncnc(N)c1F)c1ccc2c(c1)S(=O)(=O)CCC2`, the IC50 was above 99500 nM.
For `CC(C)[C@@H](Oc1cc(N)ncn1)c1ccc2c(c1)S(=O)(=O)CCC2` the value was 67400 nM.
Regarding `CC(C)[C@@H](Nc1ncnc2[nH]c(-c3cnn(C)c3)cc12)c1ccc2c(c1)S(=O)(=O)CCO2`, the IC50 was 43 nM and 51 nM.
As to `CC(C)[C@@H](Nc1ncnc2[nH]c(-c3cnc4c(c3)nnn4C)cc12)c1ccc2c(c1)S(=O)(=O)CCC2`, the IC50 is 241 nM and 131 nM and 349 nM.
For `CC(C)[C@@H](Nc1ncnc2[nH]c(S(C)(=O)=O)cc12)c1ccc2c(c1)S(=O)(=O)CCC2` the value was 992 nM.
The compound `CC(C)[C@H](NC(=O)c1ncnc2[nH]ccc12)c1ccc2c(c1)S(=O)(=O)CCC2` displayed a half-maximal inhibitory concentration (IC50) above 99500 nM.
For `CC(C)[C@@H](Nc1ncnc2[nH]c(-c3ccn4cnnc4c3)cc12)c1ccc2c(c1)S(=O)(=O)CCC2` the value was 93 nM and 73 nM and 126 nM; for `CC(C)[C@@H](Nc1cc(N2CCC[C@H]2C(=O)O)ncn1)c1ccc2c(c1)S(=O)(=O)CCC2`, above 99500 nM; for `CC(C)[C@@H](Nc1ncnc2[nH]c(C(=O)NC3CN(C)C3)cc12)c1ccc2c(c1)S(=O)(=O)CCC2`, 189 nM.
In the case of `CC(C)[C@@H](Nc1ncnc2[nH]c(-c3cn[nH]c3)cc12)c1ccc2c(c1)S(=O)(=O)CCC2`, the IC50 is 63 nM and 52 nM and 85 nM and 58 nM and 60 nM.
Under `Cc1nnn(C)c1-c1cc2c(N[C@@H](c3ccc4c(c3)S(=O)(=O)CCC4)C(C)C)ncnc2[nH]1` stands 414 nM and 419 nM; under `CC(C)[C@H](Nc1ncnc2c1CCO2)c1ccc2c(c1)S(=O)(=O)CCC2`, above 99500 nM.
Under `CC(C)[C@@H](Nc1ncnc2c1CNCC2)c1ccc2c(c1)S(=O)(=O)CCC2` stands above 99500 nM.
For `CC(C)[C@@H](NC(=O)c1ncnc2[nH]ccc12)c1ccc2c(c1)S(=O)(=O)CCC2` the value was above 99500 nM; for `CC(C)[C@H](Nc1cccc2nc[nH]c(=O)c12)c1ccc2c(c1)S(=O)(=O)CCC2`, above 99500 nM; for `COc1ccc([C@H](CC(=O)O)NC(=O)c2ncnc3[nH]ccc23)cc1`, 1440 nM.
Take `CC(C)[C@@H](Nc1ccncn1)c1ccc2c(c1)S(=O)(=O)CCC2`: the half-maximal inhibitory concentration (IC50) is above 99500 nM.
For `CC(C)[C@H](Nc1cc(N2CCOCC2)ncn1)c1ccc2c(c1)S(=O)(=O)CCC2` the value was above 99500 nM.
Under `CC(C)[C@H](Nc1ncnc2[nH]c(-c3cnn(CC(N)=O)c3)cc12)c1ccc2c(c1)NC(=O)CO2` stands above 99500 nM; under `CC(C)[C@@H](Nc1ncnc2[nH]c(-c3ccnc(OCCN(C)C)c3)cc12)c1ccc2c(c1)S(=O)(=O)CCC2`, 114 nM; under `CC(C)[C@H](Nc1ncncc1Cl)c1ccc2c(c1)S(=O)(=O)CCC2`, above 99500 nM.
